#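 Cultured in 96-well plates, cells were exposed to test compound for 48 hours across five concentrations. TGI denotes the concentration required for complete inhibition of growth.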
# Tests used:
# Assay in all cases: DTP human tumour cell line panel, 48 h
# [1] = tested on: OVCAR-8 ovarian
# [2] = tested on: DU-145 prostate
# [3] = tested on: MCF7 breast
# [4] = tested on: BT-549 breast
# [5] = tested on: MALME-3M melanoma
# [6] = tested on: KM12 colon
# [7] = tested on: HOP-92 NSCLC
Structure (SMILES),TGI [1] [µM],TGI [2] [µM],TGI [3] [µM],TGI [4] [µM],TGI [5] [µM],TGI [6] [µM],TGI [7] [µM]
Nc1ccc(Oc2ccc(C34CC5CC6C3CC3CC4C(C5)C6(c4ccc(Oc5ccc(N)cc5)cc4)C3)cc2)cc1,> 100,> 100,> 100,> 82.8,2.81,> 100,11.7
COC(=O)CCC1=CCC2(SC)C(=O)Nc3cccc1c32 (stereo not drawn),> 100,> 100,> 100,> 100,> 100,> 100,> 100
Nc1ccc(-c2nc3cc(F)ccc3s2)cc1Cl,> 100,> 100,1.35,> 63.2,67.8,> 100,> 78.9
O=c1cnn(C2OC(C(O)CO)C(O)C2O)c(=O)[nH]1 (stereo not drawn),> 100,> 100,> 100,> 100,> 100,> 100,> 100
CCCn1c2ccccc2c2ccc3c(c21)C(=O)C=CC3=O,> 6.96,> 10,4.59,4.9,4.02,> 10,3.8
C[N+](CCCl)(CCCl)Cc1cccc2cccc([N+](=O)[O-])c12,> 100,> 100,> 100,> 100,> 100,> 100,> 100
O=C1NC(NNc2ccccc2)=N/C1=C\c1ccccc1O,> 100,> 100,> 100,> 100,> 100,> 100,> 100
CN(CC(=O)O)c1ncc2c(n1)-c1ccccc1SC2,> 100,> 100,> 100,–,> 100,> 100,> 100
CCCCCCCCCC1(N=[N+]=[N-])C(=O)c2ccccc2N(C)C1=O (stereo not drawn),–,> 100,> 100,74.6,70.2,> 100,53.3
C=C(CCC/C(C)=C/C=C/[C@]1(C)CCCc2ccoc21)CC(=O)O,> 100,98.4,> 100,> 100,> 100,> 100,> 100
CC(=O)Nc1ccc(N2C(=O)/C(=C\c3cccc(Oc4ccccc4)c3)S(=O)(=O)C2c2ccccc2)cc1 (stereo not drawn),> 100,> 100,> 100,> 100,> 100,> 100,> 100
C1C2CC3CC1CC(Nc1nc(NC45CC6CC(CC(C6)C4)C5)nc(NC45CC6CC(CC(C6)C4)C5)n1)(C2)C3,> 65.5,> 100,> 100,> 100,> 100,> 51.5,> 100
COc1ccc(N2C(=O)CC(C3CC(C(C)(C)C)CCC3=O)C2=O)cc1 (stereo not drawn),> 100,> 100,> 100,> 100,–,> 100,–
O=C(O)CC1NC(/C(=C/c2ccccc2)NC(=O)c2ccccc2)OC1=O (stereo not drawn),66.5,> 100,> 100,44.2,> 100,34.1,> 100
COc1cc(C(=O)n2c3ccc(Br)cc3c3nc4ccccc4nc32)cc(OC)c1OC,> 100,> 100,> 100,> 100,> 100,> 100,> 100
CC1(C)CC(=O)c2[nH]c3ccccc3c2CC(=O)NCCc2cn1cn2,> 100,> 100,> 100,> 100,> 100,> 100,> 100
Cc1cc2c(cc1Cl)SC(NS(=O)(=O)c1ccc(Cl)cc1)=NS2(=O)=O,–,> 100,> 100,> 100,–,> 100,39.5
CC(C)(C)[Si](C)(C)OCC1OC(n2ccc(N)nc2=O)C(O[Si](C)(C)C(C)(C)C)C1O[Si](C)(C)C(C)(C)C (stereo not drawn),5.68,23.7,5.33,3.73,4.11,–,4.71
O=C1NC(=O)C(c2c[nH]c3ccccc23)=C1c1cnc[nH]1,> 100,> 100,> 100,> 100,> 100,> 100,> 100
COCC1OC(Sc2ccccc2)C(O)C(OC)C1OC (stereo not drawn),> 100,> 100,> 100,> 100,> 100,> 100,–
CC(C)(Cl)C(Br)CCC(C)(Cl)C(Br)CBr (stereo not drawn),> 100,85.2,41.7,42.9,41,–,46
O=C(O)CC(CC(=O)O)C(=O)O,> 100,> 100,> 100,> 100,> 100,> 100,> 100
CC(=O)c1ccc(NCc2cc(O)ccc2O)cc1,88.1,58,> 100,–,–,34.2,39.2
COc1cc(OC)c(-c2ccc(OCc3ccccc3)c3c(OC)cc(C)cc23)c2c1C(C)=N[C@H](C)C2,3.68,4.16,–,7.93,3.57,4.07,3.35
O=C(O)c1ccc(N=C(C(=Nc2ccc(C(=O)O)cc2)c2ccccc2)c2ccccc2)cc1,> 100,> 100,> 100,> 100,–,> 100,–
OCCCCCCCCCCCOc1ccc(C2OCC3(CO2)COC(c2ccc(OCCCCCCCCCCCO)cc2)OC3)cc1 (stereo not drawn),> 50,> 50,> 50,> 50,> 50,> 50,–
FC(F)(F)c1ccc(N=C/C=C(/Nc2ccc(C(F)(F)F)cc2)c2ccc(Cl)cc2)cc1,39,31.8,48,–,40.4,28.6,51.4
